# Biological target: T1, CCR4 (Homo sapiens, UniProt P51679)
# T1 construct: expressed in transfected cells; host or cells: HEK293
# T1 sequence (P51679 1-360): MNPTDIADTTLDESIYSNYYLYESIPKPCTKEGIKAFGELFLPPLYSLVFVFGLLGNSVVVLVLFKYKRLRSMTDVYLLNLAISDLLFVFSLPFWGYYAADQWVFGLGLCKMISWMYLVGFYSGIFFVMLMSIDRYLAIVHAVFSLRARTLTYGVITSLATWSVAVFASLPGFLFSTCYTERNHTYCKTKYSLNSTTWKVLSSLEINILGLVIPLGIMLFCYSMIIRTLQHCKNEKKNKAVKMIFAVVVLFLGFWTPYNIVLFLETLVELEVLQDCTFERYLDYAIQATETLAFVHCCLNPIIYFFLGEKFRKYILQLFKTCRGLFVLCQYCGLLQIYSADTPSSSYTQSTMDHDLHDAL
# Test: Calcium flow detected by FLIPR
# Assay type: cell-based
# Settings: CCR4/HEK293 cells, agonist CCL17, Fluo-4 calcium signal
# Procedure: CCR4/HEK293 cells were added to a 384-well cell culture plate (Greiner #781946) at a rate of 20 μL/well (20,000 cells/well) and incubated overnight in a 37° C., 5% CO2 incubator (Incubator, Thermo). On the second day, the 384-well cell culture plate was taken out of the incubator and the culture medium was removed; Then, 20 μL of detection buffer and 20 μL of 2X Fluo-4 Direct™ (Invitrogen, Cat #F10471) were added. Then, compounds were added at 10 μL/well (compounds were subjected to 4-fold serial dilution, and the highest detection concentration was 10 μM), and the cells were incubated in a 37° C., 5% CO2 incubator for 50 min, and then incubated at room temperature for 10 min. The 384-well culture plate was placed in FLIPR ([…]), 10 μL of 6X agonist CCL17 was added by using an automatic loader, and the fluorescence signal was read immediately. The mean and standard error (Mean±SEM) were statistically analyzed using Graphpad Prism software, and the IC50 value was calculated.
# The experimental results are shown in Table 3, where A represents IC50<100 nm; B represents 100 nM≤IC50<500 nM, and C represents 500 nM≤IC50.
row,Compound,IC50 [nM]
1,C[C@@H](Nc1cc(N2CC([C@H]3CCCN(CCO)C3)C2)nc2ccnn12)c1ccc(Cl)cc1Cl [Compound 24],< 100
2,"CC(Nc1nc(N2CC(C3CN(C4CC(C)(C(=O)O)C4)CCO3)C2)ncc1Br)c1ccc(Cl)cc1Cl (single isomer, unassigned) [Compound 37 isomer 1]",< 100
3,Cc1nc(N2CC([C@@H]3CN(CCO)CCO3)C2)nc(N[C@H](C)c2ccc(Cl)cc2Cl)c1Cl [Compound 31],< 100
4,C[C@@H](Nc1cc(N2CC([C@H]3CCCN([C@H]4C[C@](C)(C(=O)O)C4)C3)C2)n2nccc2n1)c1ccc(Cl)cc1Cl [Compound 25],< 100
5,"Cc1nc(N2CC(N3CCCC(N4CC(C)(C(=O)O)C4)C3)C2)nc(NC(C)c2ccc(Cl)cc2Cl)c1Cl (single isomer, unassigned) [Compound 16 isomer 1]",100 to 500
6,C[C@@H](Nc1cc(N2CC([C@H]3CCCN([C@H]4C[C@](C)(C(=O)O)C4)C3)C2)nc2ccnn12)c1ccc(Cl)cc1Cl [Compound 14],< 100
7,C#Cc1c(C)nc(N2CC([C@H]3CCCN([C@H]4C[C@](C)(C(=O)O)C4)C3)C2)nc1N[C@H](C)c1ccc(Cl)cc1Cl [Compound 4],< 100
8,Cc1cc(N2CC([C@H]3CCCN([C@H]4C[C@](C)(C(=O)O)C4)C3)C2)nc(N[C@H](C)c2ccc(Cl)cc2Cl)n1 [Compound 12],< 100
9,Cc1nc(N[C@H](C)c2ccc(Cl)cc2Cl)nc(N2CC([C@H]3CCCN([C@H]4C[C@](C)(C(=O)O)C4)C3)C2)n1 [Compound 17],< 100
10,C[C@@H](Nc1nc2c(c(N3CC([C@H]4CCCN([C@H]5C[C@](C)(C(=O)O)C5)C4)C3)n1)CCC2)c1ccc(Cl)cc1Cl [Compound 34],100 to 500
11,C[C@@H](Nc1cc(N2CC([C@H]3CCCN([C@H]4C[C@](C)(C(=O)O)C4)C3)C2)cnn1)c1ccc(Cl)cc1Cl [Compound 21],< 100
12,"Cc1nc(N2CC(N3CCCC(N4CC(C)(C(=O)O)C4)C3)C2)nc(NC(C)c2ccc(Cl)cc2Cl)c1Cl (single isomer, unassigned) [Compound 16 isomer 2]",< 100
13,"C[C@@H](Nc1cc(N2CC(C3CN(C4CC(C)(C(=O)O)C4)CCO3)C2)ncn1)c1ccc(Cl)cc1Cl (single isomer, unassigned) [Compound 29 isomer 1]",100 to 500
14,"C#Cc1ccc(C(C)Nc2nc(N3CC(C4CN(C5CC(C)(C(=O)O)C5)CCO4)C3)nc(C)c2Cl)c(Cl)c1 (single isomer, unassigned) [Compound 28 isomer 1]",< 100
15,C[C@@H](Nc1cc(N2CC([C@H]3CCCN(CCO)C3)C2)ncn1)c1ccc(Cl)cc1Cl [Compound 27],< 100
16,"C#Cc1cc(Cl)ccc1C(C)Nc1nc(N2CC(C3CCCN(C4CC(C)(C(=O)O)C4)C3)C2)nc(C)c1Cl (single isomer, unassigned) [Compound 7 isomer 2]",100 to 500
17,Cc1cc(N2CC([C@H]3CCCN([C@H]4C[C@](C)(C(=O)O)C4)C3)C2)cc(N[C@H](C)c2ccc(Cl)cc2Cl)n1 [Compound 39],< 100
18,"C#Cc1cc(Cl)ccc1C(C)Nc1nc(N2CC(C3CN(C4CC(C)(C(=O)O)C4)CCO3)C2)nc(C)c1Cl (single isomer, unassigned) [Compound 30 isomer 1]",< 100
19,"C#Cc1ccc(C(C)Nc2nc(N3CC([C@H]4CCCN([C@H]5C[C@](C)(C(=O)O)C5)C4)C3)nc(C)c2Cl)c(Cl)c1 (single isomer, unassigned) [Compound 11 isomer 1]",< 100
20,Cc1nc(N2CC([C@H]3CCCN([C@H]4C[C@](C)(C(=O)O)C4)C3)C2)nc2c1CCCN2C(C)c1ccc(Cl)cc1Cl (stereo partly drawn) [Compound 36],100 to 500

# Next, values leading:
row,IC50 [nM],Compound
1,< 100,"CC(Nc1nc(N2CC(F)(C3CN(C4CC(C)(C(=O)O)C4)CCO3)C2)ncc1Cl)c1ccc(Cl)cc1Cl (single isomer, unassigned) [Compound 89 isomer 1]"
2,100 to 500,"C[C@@H](Nc1nc2c(c(N3CC(C4CN(C5CC(C)(C(=O)O)C5)CCO4)C3)n1)CN(C)C2)c1ccc(Cl)cc1Cl (single isomer, unassigned) [Compound 68 isomer 1]"
3,< 100,"Cc1nc(N2CCC(C3CN(C4CC(C)(C(=O)O)C4)CCN3C)CC2)nc(NC(C)c2ccc(Cl)cc2Cl)c1Cl (single isomer, unassigned) [Compound 105 isomer 3]"
4,< 100,"Cc1nc(N2CC(C3CN(CCO)CCN3C)C2)nc(NC(C)c2ccc(Cl)cc2Cl)c1Cl (single isomer, unassigned) [Compound 80 isomer 1]"
5,100 to 500,C[C@@H](Nc1nc(N2CC([C@H]3CCCN([C@H]4C[C@](C)(C(=O)O)C4)C3)C2)c2c(ccn2C)n1)c1ccc(Cl)cc1Cl [Compound 44]
6,100 to 500,C[C@@H](Nc1cc(N2CC([C@H]3CCCN([C@H]4C[C@](C)(C(=O)O)C4)C3)C2)nc(C(F)(F)F)n1)c1ccc(Cl)cc1Cl [Compound 52]
7,< 100,C[C@@H](Nc1nc(N2CC([C@H]3CCCN([C@H]4C[C@](C)(C(=O)O)C4)C3)C2)c2occc2n1)c1ccc(Cl)cc1Cl [Compound 51]
8,100 to 500,"Cc1nc(N2CC(F)(C3CN(C4CC(C(=O)O)C4)CCO3)C2)nc(N[C@H](C)c2ccc(Cl)cc2Cl)c1Cl (single isomer, unassigned) [Compound 84 isomer 1]"
9,100 to 500,C[C@@H](Nc1nc(N2CC([C@H]3CCCN([C@H]4C[C@](C)(C(=O)O)C4)C3)C2)c2ccn(C)c2n1)c1ccc(Cl)cc1Cl [Compound 43]
10,100 to 500,"CC(Nc1nc(N2CC(F)(C3CN(C4CC(C)(C(=O)O)C4)CCO3)C2)nc(C(F)(F)F)c1Cl)c1ccc(Cl)cc1Cl (single isomer, unassigned) [Compound 65 isomer 3]"
11,< 100,"Cc1nc(N2CC=C(C3CN(C4CC(C)(C(=O)O)C4)CCO3)CC2)nc(NC(C)c2ccc(Cl)cc2Cl)c1Cl (single isomer, unassigned) [Compound 107 isomer 1]"
12,< 100,C[C@@H](Nc1cc(N2CCC(C3CN(CCO)CCO3)CC2)nc2ccnn12)c1ccc(Cl)cc1Cl (stereo partly drawn) [Compound 112]
13,< 100,C[C@@H](Nc1cc(N2CC([C@H]3CCCN([C@H]4C[C@](C)(C(=O)O)C4)C3)C2)nc2nccn12)c1ccc(Cl)cc1Cl [Compound 55]
14,< 100,"Cc1nc(N2CCC(F)(C3CN(C4CC(C)(C(=O)O)C4)CCO3)CC2)nc(NC(C)c2ccc(Cl)cc2Cl)c1Cl (single isomer, unassigned) [Compound 106 isomer 3]"
15,100 to 500,C[C@@H](Nc1nc2c(c(N3CC([C@H]4CCCN([C@H]5C[C@](C)(C(=O)O)C5)C4)C3)n1)COC2)c1ccc(Cl)cc1Cl [Compound 45]
16,100 to 500,"Cc1nc(N2CC(C3CN(C4CC(c5nn[nH]n5)C4)CCO3)C2)nc(NC(C)c2ccc(Cl)cc2Cl)c1Cl (single isomer, unassigned) [Compound 79 isomer 1]"
17,100 to 500,"CC(Nc1nc(N2CC(C3CN(C4CC(C)(C(=O)O)C4)CCC34CC4)C2)nc(C(F)F)c1Cl)c1ccc(Cl)cc1Cl (single isomer, unassigned) [Compound 74 isomer 3]"
18,100 to 500,"C[C@@H](Nc1nc(N2CC(C3CN(C4CC(C)(C(=O)O)C4)CCO3)C2)nc2ccsc12)c1ccc(Cl)cc1Cl (single isomer, unassigned) [Compound 54 isomer 1]"
19,< 100,Cc1nc(N2CC(F)(C3CN(CCC(=O)O)CCO3)C2)nc(N[C@H](C)c2ccc(Cl)cc2Cl)c1Cl (stereo partly drawn) [Compound 88]

# Reference: patent US20250340532A1, “HETEROCYCLIC COMPOUND CCR4 INHIBITOR AND USER THEREOF” (Xizang Haisco Pharmaceutical Co., Ltd., priority 2022, published 2025)
